“And” between values parts separate entries of the source, which are not always exact repeats. Identical values can stand only once. No end group written: not given here.

Experiment [1] relates to human iPS cells 0901B. In words: iPS colony formation / cloning efficiency after complete dissociation at clonal density. It is filed as cell-based. As for the experimental part: (§1) The human iPS cells (BJ1D and 0901B) were obtained from the Ontario iPSC Facility and used following the hiPS cell research guidelines of the University of Toronto as described by Hotta et al. Nat. Protoc. 4, 1828-1844 (2009)), unless specified otherwise. Cells were cultured on a feeder layer of MEF cells (Mount Sinai Hospital Toronto, inactivated with 10 μg/ml mitomycin C and seeded at 1.8×10^5 per 3.5 cm dish). For single cell cultures, hiPS cell colonies were dissociated in 0.25% Trypsin-EDTA (Invitrogen) for 5 min, followed by trituration with a pipette. To ensure a single-cell suspension, the dissociated cells were passed through a 40 μm cell strainer (BD Falcon) and seeded onto MEF plates at 10 cells/ml, 10 cm plates. Cells were allowed to grow for 7 days and the total number of colonies was counted. In the treated groups, QHREDGS (Biomatik) or DGQESHR (Biomatik) dissolved in PBS (Lonza), were added at the reported concentrations to culture media at the onset of the first treatment passage and replenished with each media change. Media was changed by 100% every day. Peptides and controls were included during dissociation and passaging. Cells were analyzed after 5 passages in continuous treatment with 50 μM QHREDGS, 50 μM DGQESHR, or PBS, unless specified otherwise.
(§2) iPS cells, BJ1D or 0901B were treated with 50 μM of QHREDGS peptide, or 50 μM DGQESHR scrambled peptide in PBS with a PBS treated control for five passages as a preparation for passage by trypsin. Cells were trypsinized and plated at a clonal density of 10 cells/ml for one week and the number of colonies were counted.
(§3) After 5 passages in pre-treatment with 50 μM QHREDGS, or controls and complete dissociation (trypsinized), human iPS cells, BJ1D or 0901B cells, were plated on a mouse embryonic fibroblast (MEF) feeder layer at low density (100 cells/plate, 10 cm plate) in maintenance medium containing 50 μM QHREDGS, PBS, or 50 μM DGQESHR scrambled peptide. After one-week in culture, untreated or DGQESHR (scrambled peptide) treated groups generated few colonies, whereas QHREDGS treated groups for both BJ1D or 0901B cells produced many large colonies (˜15 times more than the controls) (see FIG. 13A/B, respectively). The colonies were positive for Oct4, a marker for the undifferentiated state. The cloning efficiency, based on ratio of Oct4+ colonies formed per initially seeded human iPS cells, was 27+/−7.1% and 2.5+/−0.6% for BJ1D and 48+/−9.4% and 22.3+/−1.9 for 0901B in the presence and absence of QHREDGS, respectively. […] Thus, treatment with QHREDGS supports single-cell culture of human iPS cells through the promotion of colony formation.

Experiment [2] has as its system human iPS cells BJ1D. The experiment is described as above. Type of experiment: cell-based. As for the experimental part:
as §1, §2, §3

Experiment [3] deals with human iPS cells 0901B. In words: Pluripotency markers Oct4 and SSEA4 by FACS. It is filed as cell-based. To be noted: 50 μM, five passages, FIG. 15. As for the experimental part:
(§4) Analytical flow cytometry was performed on a FACSCalibur flow cytometer (BD Biosciences) as described in Chiang et al. Acta Biomater. 6, 1904-1916 (2010), with an additional permeabilization step with 0.25% Triton-X (Sigma) for 10 min at 4° C. Oct4 (Millipore), SSEA-4 (Developmental Studies Hybridoma Bank) and Ki67 (Millipore) and all secondary antibodies (Jackson ImmunoResearch) were used at 1:100.
(In general: Flow cytometry measures light scatter and fluorescence of single cells or particles in a stream.)

The test system of experiment [4] is human iPS cells BJ1D. The experiment is described as follows: Pluripotency markers Oct4 and SSEA4 by FACS. Type of experiment: cell-based. The following applies: 50 μM, five passages, FIG. 14. The method, then: as §4
Experiment [5] relates to neonatal rat CMs (heart cells). The experiment is described as follows: Immunostaining for cardiac troponin I on coated surfaces. Type of experiment: cell-based, rat (Sprague-Dawley). The following applies: day 8 of cultivation, vs Az-chitosan alone, FIG. 3. The method, then: The day before cells were ready to be seeded, the surfaces in the 12-well plates were sterilized by germicidal UV illumination overnight. The PBS surrounding the surfaces was then aspirated off and 100,000 live cells were pipetted onto each surface in 100 μL of culture media. These surfaces were left in the incubator for 20 to 30 min to allow the cells to begin to adhere, and then supplemented with 1 mL of warm CM media. The cells were cultivated for 8 days, with 100% culture media change every 2-3 days. The initial seeding density of heart cells on peptide-chitosan coated surfaces was 88 cells/mm^2. […] Each type of surface was created in triplicate.
The immunostaining against cardiac troponin I was performed on cells fixed with 4 w/v % paraformaldehyde (PFA, Sigma). The samples were submersed in a blocking solution composed of 10% normal horse serum (NHS, Vector Laboratories) in PBS for 40 min at room temperature. This solution was removed and the sample was submersed in a solution containing primary antibody for 1 hour at 37° C. […] Each sample was made in triplicate and five pictures were taken of each surface to have an adequate representation for quantification. The numbers of nuclei were determined by counting the number of DAPI stained nuclei using the cell counting plugin on ImageJ. The number of CMs was determined by counting the number of successfully stained Troponin I cells.

Where [6] appears, read: 50 μM, 100 cells/plate on MEF, one week.
The mark [7] stands for this setting: in the presence of 50 μM QHREDGS.

For QHREDGS (angiopoietin 1 peptide), the “colonies relative to controls” value in the experiment with human iPS cells 0901B [1] (setting [6]) and in the experiment with human iPS cells BJ1D [2] (setting [6]) was ~15 times more than the controls throughout. Moreover, the number of colonies result is given as “increased significantly” in the experiment with human iPS cells 0901B [1] (50 μM, trypsinized, clonal density, one week, FIG. 13B) and “increased significantly” in the experiment with human iPS cells BJ1D [2] (50 μM, trypsinized, clonal density, one week, FIG. 13A). The “cloning efficiency (Oct4+ colonies per initially seeded cells)” value in the experiment with human iPS cells 0901B [1] (setting [7]) was 48+/−9.4% and 48%; in the experiment on human iPS cells BJ1D [2] (setting [7]) it was 27+/−7.1% and 27%. Further, the “expression of Oct4 and SSEA4 (FACS)” value in the experiment on human iPS cells 0901B [3] was “comparable to both PBS and DGQESHR scrambled peptide controls”; in the experiment on human iPS cells BJ1D [4], “comparable to both PBS and DGQESHR scrambled peptide controls”.
Consider “Az-chitosan-QHREDGS: QHREDGS peptide covalently conjugated to Az-chitosan by EDC chemistry (also: covalently conjugated to Az-chitosan by EDC chemistry, site not given here)”, for which the “percentage of troponin I positive cells” value in experiment [5] was “increase in the percentage of troponin I positive cells”.

For the origin of these results see patent publication US9096643B2, “Cell-protective peptides and uses thereof” (priority 2010, dated 2015).
